Molecular target: T1, long form of human GPR120 (Homo sapiens, UniProt Q5NUL3)
T1 construct: host or cells: PathHunter CHO-K1 GPR120 β-Arrestin Cell Line
T1 sequence (Q5NUL3 1-377 isoform Q5NUL3-1): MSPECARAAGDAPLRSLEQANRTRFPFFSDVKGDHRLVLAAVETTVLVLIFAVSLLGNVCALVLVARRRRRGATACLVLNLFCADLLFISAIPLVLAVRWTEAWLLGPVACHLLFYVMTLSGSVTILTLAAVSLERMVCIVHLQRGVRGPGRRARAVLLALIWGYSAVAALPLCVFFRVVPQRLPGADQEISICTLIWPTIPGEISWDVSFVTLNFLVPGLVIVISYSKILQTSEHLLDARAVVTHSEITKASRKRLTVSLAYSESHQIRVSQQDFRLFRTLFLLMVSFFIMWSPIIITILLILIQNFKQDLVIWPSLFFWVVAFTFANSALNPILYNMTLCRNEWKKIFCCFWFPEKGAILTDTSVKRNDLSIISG
Assay: Human GPR120 DiscoveRx PathHunter Beta-Arrestin assay, Procedure β-arrestin A
Assay type: cell-based
Settings: PathHunter CHO-K1 GPR120 β-Arrestin Cell Line, long form of human GPR120, 3000 cells per well; read-out: hGPR120 β-arrestin A EC50
Source text: The binding of an agonist (medium/long chain fatty acids or small molecule agonists) to the G-protein-coupled receptor GPR120 activates phospholipase C, leading to release of intracellular Ca^+2 through the generation of inositol 1,4,5-trisphosphate (InsP3 or IP3). GPR120 activation can also trigger intracellular signaling via recruitment of Beta-Arrestin. In the present method, agonist-induced activation of the human GPR120 receptor is monitored through the use of PathHunter CHO-K1 GPR120 Beta-Arrestin Cell Line engineered by DiscoveRx, as detailed below. […]
Under these conditions, these fragments can interact and form an active Beta-gal enzyme complex through Enzyme Fragment Complementation (EFC). This active Beta-gal complex can enzymatically hydrolyse the substrate to produce a detectable light signal; therefore, activation as a function of agonist concentration can be expressed as an EC50 value to determine relative compound activities. […]
The plates were read on an EnVision instrument, using Protocol name: Luminescence, Plate type: 384 Costar, Measurement height: 3 mm, Measurement time: 1s, Aperture: 384 Plate aperture. The %activity relative to the positive control was calculated using the following equation: %Activity = (Countcompound −Countvehicle)/(Countpostivite control −Countvehicle) × 100% [formula] […]

Structure (SMILES): O=C(O)CCc1cc(F)c(OCc2c(Cl)nsc2-c2ccc(Cl)cc2)c(F)c1 [Cpd 75, 3-(4-[[3-chloro-5-(4-chlorophenyl)-1,2-thiazol-4-yl]methoxy]-3,5-difluorophenyl)propanoic acid]
- EC50: 141 nM

Structure (SMILES): O=C(O)CCc1ccc(OCc2c(C(F)(F)F)nsc2-c2ccc(Cl)cc2)c(Cl)c1Cl [Cpd 55, 3-(2,3-dichloro-4-[[5-(4-chlorophenyl)-3-(trifluoromethyl)-1,2-thiazol4-yl]methoxy]phenyl) propanoic acid]
- EC50: 176 nM
